Experiments:
Assay in all cases: relative viability (nuclei count vs DMSO), 5 days (fraction); higher = more cells survive
[1] = compound: C1CC1C(=O)NC2=NNC3=C2C=CC(=C3)C4=CC(=CC=C4)C(=O)NC5CC5 [XMD13-2] + COc1cccc2cc(-c3nc([C@H]4CC[C@H](C(=O)O)CC4)n4ncnc(N)c34)[nH]c12 [OSI-027] (partner 0.5 µM)
Procedure, shortened: (§1)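 A single step with final 0.05% Triton X-100, 1% formaldehyde and 1 ug/ml Hoechst fixed the cells and stained nuclei 5 days after treatment. Lung cancer cell lines in 1536-well plates had been treated by pin tool the day after seeding with one drug alone or a fixed anchor-drug dose plus five library-drug doses (not always all listed) in √10 steps, and nuclei were counted on 4× images. Relative viability is the ratio of nuclei in treated wells to nuclei in vehicle wells, taken as the median of duplicate plates.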

[2] = compound: Cc1ccc(C(=O)Nc2cccc(C(F)(F)F)c2)cc1Nc1cncc(C(N)=O)c1 [ALW-II-49-7] + COc1cccc2cc(-c3nc([C@H]4CC[C@H](C(=O)O)CC4)n4ncnc(N)c34)[nH]c12 [OSI-027] (partner 0.5 µM)
Procedure, shortened: as §1

[3] = compound: Cc1nc(Nc2ncc(C(=O)Nc3c(C)cccc3Cl)s2)cc(N2CCN(CCO)CC2)n1 [Dasatinib] + CC1(C)CCC(c2ccc(Cl)cc2)=C(CN2CCN(c3ccc(C(=O)NS(=O)(=O)c4ccc(N[C@H](CCN5CCOCC5)CSc5ccccc5)c(S(=O)(=O)C(F)(F)F)c4)cc3)CC2)C1 [Navitoclax] (partner 0.5 µM)
Procedure, shortened: as §1

[4] = compound: Cc1nc(Nc2ncc(C(=O)Nc3c(C)cccc3Cl)s2)cc(N2CCN(CCO)CC2)n1 [Dasatinib] + COc1cc2c(Oc3ccc(NC(=O)C4(C(=O)Nc5ccc(F)cc5)CC4)cc3F)ccnc2cc1OCCCN1CCOCC1 [Foretinib] (partner 0.25 µM)
Procedure, shortened: as §1

Cell Line | relative viability ([1]; first compound 0.05 µM) | relative viability ([1]; first compound 0.1581 µM) | relative viability ([1]; first compound 0.5 µM) | relative viability ([1]; first compound 1.581 µM) | relative viability ([1]; first compound 5 µM) | relative viability ([2]; first compound 0.08 µM) | relative viability ([2]; first compound 0.253 µM) | relative viability ([2]; first compound 0.8 µM) | relative viability ([2]; first compound 2.53 µM) | relative viability ([2]; first compound 8 µM) | relative viability ([3]; first compound 0.005 µM) | relative viability ([3]; first compound 0.01581 µM) | relative viability ([3]; first compound 0.05 µM) | relative viability ([3]; first compound 0.1581 µM) | relative viability ([3]; first compound 0.5 µM) | relative viability ([4]; first compound 0.005 µM) | relative viability ([4]; first compound 0.01581 µM) | relative viability ([4]; first compound 0.05 µM) | relative viability ([4]; first compound 0.1581 µM) | relative viability ([4]; first compound 0.5 µM)
201T | 0.95 | 0.731 | 0.854 | 0.701 | 0.723 | 0.68 | 0.841 | 0.462 | 0.493 | 0.684 | 1.15 | 1.2 | 1.13 | 1.01 | 0.65 | 0.945 | 0.883 | 0.816 | 0.531 | 0.346
A549 |  |  |  |  |  |  |  |  |  |  | 1.27 | 1.2 | 1.27 | 1.06 | 0.443 | 0.876 | 0.817 | 0.59 | 0.3 | 0.119
A-427 | 0.462 | 0.354 | 0.489 | 0.444 | 0.355 | 0.412 | 0.484 | 0.472 | 0.444 | 0.473 | 0.891 | 0.92 | 0.673 | 0.476 | 0.495 | 0.971 | 1.04 | 0.974 | 0.694 | 0.599
ABC-1 | 0.693 | 0.486 | 0.572 | 0.427 | 0.368 | 0.404 | 0.423 | 0.481 | 0.494 | 0.379 |  |  |  |  |  | 1.08 | 0.906 | 0.948 | 0.692 | 0.487
BEN | 0.309 | 0.276 | 0.312 | 0.291 | 0.327 | 0.548 | 0.317 | 0.294 | 0.288 | 0.403 | 0.0479 | 0.0657 | 0.0572 | 0.0599 | 0.0611 | 0.682 | 0.513 | 0.35 | 0.366 | 0.291
CAL-12T | 0.803 | 0.585 | 0.549 | 0.426 | 0.577 | 0.734 | 0.745 | 0.612 | 0.759 | 0.503 | 1.36 | 1.17 | 1.49 | 1.35 | 0.97 | 1.18 | 1.04 | 1.23 | 0.66 | 0.532
COR-L23 | 0.915 | 0.78 | 0.838 | 0.711 | 0.864 | 0.556 | 0.709 | 0.828 | 0.715 | 0.677 | 1.01 | 0.85 | 0.797 | 0.55 | 0.347 | 0.915 | 0.904 | 0.829 | 0.535 | 0.549
COR-L 105 | 0.83 | 0.658 | 0.668 | 0.66 | 0.707 | 0.644 | 0.719 | 0.66 | 0.644 | 0.753 | 0.588 | 0.49 | 0.52 | 0.368 | 0.278 | 0.786 | 0.955 | 0.64 | 0.377 | 0.264
Calu-6 |  |  |  |  |  |  |  |  |  |  | 0.762 | 0.759 | 0.646 | 0.571 | 0.589 | 0.738 | 0.702 | 0.633 | 0.513 | 0.469
ChaGo-K-1 | 0.642 | 0.545 | 0.597 | 0.542 | 0.497 | 0.472 | 0.622 | 0.616 | 0.496 | 0.429 | 0.618 | 1.08 | 0.965 | 0.909 | 0.923 | 0.922 | 0.881 | 0.874 | 0.725 | 0.667
EBC-1 |  |  |  |  |  |  |  |  |  |  | 0.477 | 0.289 | 0.314 | 0.25 | 0.283 | 0.106 |  | 0.0991 | 0.121 | 0.0976
EKVX | 0.832 | 0.68 | 0.78 | 0.682 | 0.863 | 0.579 | 0.773 | 0.578 | 0.653 | 0.679 | 0.951 | 0.958 | 0.821 | 0.407 | 0.18 | 0.757 | 0.84 | 0.753 | 0.455 | 0.135
EMC-BAC-2 | 0.394 | 0.4 | 0.383 | 0.366 | 0.358 | 0.351 | 0.39 | 0.336 | 0.296 | 0.305 | 1.13 | 0.939 | 0.936 | 0.548 | 0.28 | 0.862 | 0.733 | 0.573 | 0.297 | 0.242
EPLC-272H | 0.313 | 0.257 | 0.281 | 0.238 | 0.247 | 0.277 |  | 0.278 | 0.293 | 0.265 | 1.32 | 1.06 | 1.39 | 0.959 | 0.473 | 0.769 | 0.631 | 0.634 | 0.214 | 0.127
H3255 | 0.705 | 0.536 | 0.589 | 0.564 | 0.549 | 0.556 | 0.58 | 0.559 | 0.483 | 0.388 | 0.542 | 0.527 | 0.388 | 0.187 | 0.115 | 1.02 | 0.822 | 0.726 | 0.944 | 0.352
HARA | 0.661 | 0.438 | 0.43 | 0.446 | 0.636 | 0.547 | 0.441 | 0.298 | 0.387 | 0.442 | 1.15 | 0.974 | 1 | 0.596 | 0.326 | 0.826 | 0.504 | 0.541 | 0.207 | 0.136
HCC-15 | 0.765 | 0.723 | 0.733 | 0.546 | 0.484 | 0.647 | 0.75 | 0.619 | 0.663 | 0.536 | 0.692 | 0.528 | 0.555 | 0.332 | 0.239 | 1.09 | 0.919 | 0.876 | 0.719 | 0.57
HCC-44 | 0.565 | 0.57 | 0.507 | 0.381 | 0.438 |  | 0.743 | 0.325 | 0.533 | 0.414 | 0.93 | 0.916 | 0.98 | 0.761 | 0.436 |  |  |  |  | 

— the supplement of paper PMC10307832
